Source: the NIST ThermoML archive (doi:10.1021/je400282h)
± gives the expanded uncertainty stated by the source.

Conditions: Liquid, Ebulliometric method (Recirculating still)

| vapor or sublimation pressure (373.15 K) [kPa] | vapor or sublimation pressure (391.03 K) [kPa] | SMILES |
| --- | --- | --- |
| 101.32 ± 0.46 |  | O [water] |
|  | 101.32 ± 0.46 | CC(=O)O [acetic acid] |
